Results published in ChEMBL document CHEMBL1143765 (Science, 2007).
Activity calls are given as the source filed them. The rule behind the calls is not given here.

Key:
Aquifex aeolicus = test: Inhibition of [3H]leucine transport activity of LeuT in proteoliposomes by scintillation proximity assay
[1] = Displacement of [3H]leucine from Aquifex aeolicus His-LeuT expressed in Escherichia coli by scintillation proximity assay

| SMILES | Activity (Aquifex aeolicus) | IC50 [1] |
| --- | --- | --- |
| CNCCCN1c2ccccc2CCc2ccccc21 [DESIPRAMINE] | Active | 80 µM |
| CN(C)CCCN1c2ccccc2CCc2ccccc21 [IMIPRAMINE] | – | 244 µM |
| CNCCC=C1c2ccccc2CCc2ccccc21 [NORTRIPTYLINE] | – | 75 µM |
| CNCCC(Oc1ccc(C(F)(F)F)cc1)c1ccccc1 (stereo not given) [FLUOXETINE] | – | 858 µM |
